Here are results for seven compounds from patent US4840969A, “N-substituted benzamides” (Bayer Aktiengesellschaft, priority 1986, dated 1989).

In one series the test system is Globodera rostochiensis. The series is described as follows: Critical concentration test, Globodera rostochiensis (potatoes in infested soil). It is filed as in vivo. Particulars: active compound concentrations of 2.5, 5 and 10 ppm in soil; potato root cysts after six weeks; 18° C. How it is done:
Critical concentration test
Test nematode: Globodera rostochiensis
(§1) Solvent: 3 parts by weight of acetone
(§2) Emulsifier: 1 part by weight of alkylaryl polyglycol ether
The treated soil is filled into pots, potatoes are planted and the pots are kept at a greenhouse temperature of 18° C.

The subject of the next series is Meloidogyne incognita. Briefly: Critical concentration test/nematodes, Meloidogyne incognita (lettuce in infested soil). In kind it is in vivo. To be noted: active compound concentration of 1.25 ppm-10 ppm in soil; lettuce root galls after four weeks; 27° C. How it is done: Critical concentration test/nematodes
Test nematode: Meloidogyne incognita
as §1, §2
The treated soil is filled into pots, lettuce is sown and the pots are kept at a greenhouse temperature of 27° C.

For series [1] the following is noted: known from U.S. Pat. No. 2,978,479 and Pesticide Manual; cited from earlier work.
Another series is described as follows: LD50 on rats (oral). Particulars: rat, in vivo, stomach tube, in polyethylene glycol Lutrol, read-out: LD50 (mg of active compound/kg of body weight). How it is done:
LD50 values on rats (oral)
The values were determined in the customary manner.

SMILES strings stand for the structures.

`O=C(NCC(F)(F)F)c1c(F)cccc1F` [Example 5] came in with a degree of effectiveness in the series with Globodera rostochiensis of 95%.

As for `O=C(NC1(C(F)(F)F)CC1)c1c(F)cccc1F` [Example 33], the degree of effectiveness with Meloidogyne incognita and in the series on Globodera rostochiensis was 95% in each case.

Turning to `CCOP(=O)(NC(C)C)Oc1ccc(SC)c(C)c1` (stereo not drawn) [fenamiphos, O-ethyl-O-(3-methyl-4-methylthio-phenyl)-N-isopropyl-phosphoric acid ester-amide, reference compound], in the series with Meloidogyne incognita, the degree of effectiveness stood at 95%. Further, the “insecticidal and nematicidal properties” value in series [1] is recorded as “very good”. Moreover, in “LD50 on rats (oral)”, the LD50 lay within 10 to 20 mg/kg.

For the compound `CC(NC(=O)c1c(F)cccc1F)C(F)(F)F` (stereo not drawn) [Example 1, 2,6-difluorobenzoic acid N-(1,1,1-trifluoro-prop-2-yl)-amide], the degree of effectiveness in the series on Meloidogyne incognita and in the series with Globodera rostochiensis was 95% throughout.

For the compound `CC(NC(=O)c1ccccc1Cl)C(F)(F)F` (stereo not drawn) [Example 29], the degree of effectiveness in the series on Meloidogyne incognita and in the series with Globodera rostochiensis was 95% throughout.

`CN(CC(F)(F)F)C(=O)c1c(F)cccc1F` [Example 6] had a degree of effectiveness with Meloidogyne incognita of 95%.

`CC(NC(=O)c1c(F)cccc1F)C(F)(F)F` (stereo not drawn) [drawing 61]: the LD50 in the series “LD50 on rats (oral)” was above 1000 mg/kg.
